Like-named read-outs stand apart in the source and are kept apart here. Each block holds one compound with its values, some of them ahead of it.
How the values were obtained:
[1] = Solubility of synthetic glycolipids in hot PBS; type: physicochemical
From the text: In the context of this description the phrase “water soluble” means a stable, single phase system is formed when the synthetic molecule construct is contacted with water or saline (such as PBS) in the absence of organic solvents or detergents, and the term “solution” has a corresponding meaning.
For use in the transformation of cells the first criterion that synthetic glycolipids must satisfy is that they are soluble in aqueous solvents, e.g. phosphate buffered saline.
Initial tests on the molecules were to establish solubility and thus eliminate those molecules that were unsuitable for use in the transformation of cells.

[2] = system: group O red blood cells (RBCs); experiment: Tube serology of group O RBCs transformed at 37° C. with synthetic glycolipids; type: cell-based, human; set-up: Albaclone anti-A, Tube / Bioclone anti-A, Tube: scale not given here
Experimental: (§1) Washed packed group O red blood cells (RBCs) (3 parts by volume) and the synthetic glycolipid solution (1 part by volume, varying concentrations) were added to an eppendorf tube. The tube was incubated in a 37° C. waterbath for one hour, mixing every 15 minutes. […]
(§2) Tube serology and Diamed gel-card results for RBCs transformed with the different synthetic molecule constructs are provided in Table 38. Results for the stability of the RBCs transformed with the different synthetic glycolipids at different concentrations are provided in Tables 39 to 44.

RBCs [3] = experiment: Evaluation of insertion of different lipid tails by agglutination with the relevant antisera; type: cell-based; set-up: scale not given here
From the text: Transformation of RBCs with synthetic glycolipids with different lipid tails was first evaluated (Tables 22 and 24).

[4] = system: group O red blood cells (RBCs); experiment: Diamed gel-card agglutination of group O RBCs transformed at 37° C. with synthetic glycolipids; type: cell-based, human; set-up: scale not given here
Experimental: as §1, §2

RBCs [5] = experiment: Detectable transformation ability of synthetic glycolipids (agglutination); type: cell-based; details: agglutination with the appropriate antibody
From the text: The synthetic glycolipid must also be able to insert into the membrane and be recognisable to the appropriate antibody for transformation to be detected by agglutination. Initial tests on the molecules were to establish solubility and thus eliminate those molecules that were unsuitable for use in the transformation of cells.

Mouse RBCs = experiment: Tube serology of murine RBCs transformed with H-antigen synthetic glycolipids; type: cell-based; details: for H Antisera IgM, Tube: mouse RBCs; for Agglutination, UEA-1: tube serology
Experimental: Washed packed mouse RBCs (3 parts by volume) and the synthetic glycolipid solutions (1 part by volume of varying concentrations) were added to an eppendorf tube. The tube was incubated in a 37° C. waterbath for one hour, mixing every 15 minutes. The transformed RBCs were washed 3× with PBS and then suspended in Cellstab™ at the appropriate concentration for serology testing.
Murine RBCs were washed 3× in 1× PBS. 30 μl of packed RBCs were combined with 30 μl of Hdi-sp-Ad-DOPE (VIII), and 30 μl of packed RBCs were combined with 30 μl Galβ-sp-Ad-DOPE (IX), respectively. Both synthetic molecule constructs were at a concentration of 1.0 mg/ml. 30 μl of 1× PBS was added to 30 μl of packed RBCs to act as the control group. Cells were incubated for 90 minutes in a 37° C. shaking water-bath. RBCs were washed 3× in 1× PBS.
Three groups of packed RBCs were incubated with an equal volume of lectin UEA-1 for 30 minutes at room temperature. The lectin was prepared in 1× PBS at a concentration of 0.1 mg/ml. 50 μl of a 3% cell suspension was spun for 15 seconds in an Immunofuge at low speed. Results were read by tube serology.

red blood cells = experiment: Association of KODE-fluorescein with cell membranes (fluorescence microscope); type: cell-based
From the text: FIG. 20. Red blood cells following contact with a synthetic molecule construct (XVI) viewed with a fluorescence microscope at 470 nm under 250× magnification.
A medium to strongly fluorescing cell was considered to indicate a uniform distribution of the molecule across the cell membrane (FIG. 20).

- Water solubility ([1]; hot PBS): Yes
Structure (SMILES): CCCCCCCCCCCCCCCCCC(=O)OC[C@H](COP(=O)(O)OCCNC(=O)CCCCC(=O)NCCCO[C@@H]1O[C@H](CO)[C@H](O)[C@H](O[C@H]2O[C@H](CO)[C@H](O)[C@H](O)[C@H]2NC(C)=O)[C@H]1O[C@@H]1O[C@@H](C)[C@@H](O)[C@@H](O)[C@@H]1O)OC(=O)CCCCCCCCCCCCCCCCC [Atri-sp-Ad-DSPE (III)]
- Albaclone anti-A, Tube ([2]; 0.01 mg/mL): 0
- Bioclone anti-A, Tube ([2]; 0.01 mg/mL): 0
- Albaclone anti-A, Tube ([2]; 0.02 mg/mL): 0
- Bioclone anti-A, Tube ([2]; 0.02 mg/mL): 0
- Albaclone anti-A, Tube ([2]; 0.03 mg/mL): 0
- Bioclone anti-A, Tube ([2]; 0.03 mg/mL): 0
- Albaclone anti-A, Tube ([2]; 0.04 mg/mL): 0
- Bioclone anti-A, Tube ([2]; 0.04 mg/mL): 0
- Albaclone anti-A, Tube ([2]; 0.05 mg/mL): 0
- Bioclone anti-A, Tube ([2]; 0.05 mg/mL): 0
- Agglutination score (RBCs [3]; 10 μg/mL, Alba anti-A, first series): 0
- Agglutination score (RBCs [3]; 10 μg/mL, Bio anti-A, first series): 0
- Agglutination score (RBCs [3]; 20 μg/mL, Alba anti-A, first series): 0
- Agglutination score (RBCs [3]; 20 μg/mL, Bio anti-A, first series): 0
- Agglutination score (RBCs [3]; 30 μg/mL, Alba anti-A, first series): 0
- Agglutination score (RBCs [3]; 30 μg/mL, Bio anti-A, first series): 0
- Agglutination score (RBCs [3]; 40 μg/mL, Alba anti-A, first series): 0
- Agglutination score (RBCs [3]; 40 μg/mL, Bio anti-A, first series): 0
- Agglutination score (RBCs [3]; 50 μg/mL, Alba anti-A, first series): 0
- Agglutination score (RBCs [3]; 50 μg/mL, Bio anti-A, first series): 0
- Agglutination score (RBCs [3]; 1000 μg/mL, DBA): 0
- Albaclone anti-A, Diamed ([4]; 0.01 mg/mL): 0
- Bioclone anti-A, Diamed ([4]; 0.01 mg/mL): 0
- Albaclone anti-A, Diamed ([4]; 0.05 mg/mL): 0
- Bioclone anti-A, Diamed ([4]; 0.05 mg/mL): 0
- Albaclone anti-A, Diamed ([4]; 0.1 mg/mL): 0
- Bioclone anti-A, Diamed ([4]; 0.1 mg/mL): 0
- Albaclone anti-A, Diamed ([4]; 0.25 mg/mL): 0
- Bioclone anti-A, Diamed ([4]; 0.25 mg/mL): 0
- Detectable transformation ability (RBCs [5]): Yes

- Water solubility [1]: Yes
Structure (SMILES): CCCCCCCC/C=C\CCCCCCCC(=O)OC[C@H](COP(=O)(O)OCCNC(=O)CCCCC(=O)NCCCO[C@@H]1O[C@H](CO)[C@H](O)[C@H](O)[C@H]1O)OC(=O)CCCCCCC/C=C\CCCCCCCC [Galβ-sp-Ad-DOPE (IX)]
- H Antisera IgM, Tube (Mouse RBCs; 0.01 mg/mL): 0
- H Antisera IgM, Tube (Mouse RBCs; 0.05 mg/mL): 0
- H Antisera IgM, Tube (Mouse RBCs; 0.1 mg/mL): 0
- H Antisera IgM, Tube (Mouse RBCs; 0.25 mg/mL): 0
- Detectable transformation ability (RBCs [5]): lack of detectable transformation and No

Structure (SMILES): CCCCCCCC/C=C\CCCCCCCC(=O)OC[C@H](COP(=O)(O)OCCNC(=O)CCCCC(=O)NCCCO[C@@H]1O[C@H](CO)[C@H](O)[C@H](O)[C@H]1O)OC(=O)CCCCCCC/C=C\CCCCCCCC [Galβ]
- Agglutination, UEA-1 (Mouse RBCs; Murine RBC, 1 mg/ml): 0

Structure (SMILES): CCCCCCCC/C=C\CCCCCCCC(=O)OC[C@H](COP(=O)(O)OCCNC(=O)CCCCC(=O)NCCCO[C@@H]1O[C@H](CO)[C@H](O)[C@H](O)[C@H]1O[C@@H]1O[C@@H](C)[C@@H](O)[C@@H](O)[C@@H]1O)OC(=O)CCCCCCC/C=C\CCCCCCCC [Hdi-sp-Ad-DOPE (VIII)]
- Water solubility ([1]; hot PBS): Yes
- H Antisera IgM, Tube (Mouse RBCs; 0.01 mg/mL): 0
- H Antisera IgM, Tube (Mouse RBCs; 0.05 mg/mL): 0
- H Antisera IgM, Tube (Mouse RBCs; 0.1 mg/mL): 0
- H Antisera IgM, Tube (Mouse RBCs; 0.25 mg/mL): 0
- Detection of transformed murine RBCs by anti-H IgM and UEA-1 (Mouse RBCs; 1.0 mg/ml, 37° C. 90 minutes): neither anti-H IgM nor UEA-1 detects
- Agglutination, Mouse IgM^H (Mouse RBCs; Murine RBC, 1 mg/ml): 0
- Agglutination, UEA-1 (Mouse RBCs; Murine RBC, 1 mg/ml): 0
- Detectable transformation ability (RBCs [5]): lack of detectable transformation and No

Structure (SMILES): CCCCCCCCC=CCCCCCCCC(=O)OCC(COP(=O)(O)OCCNC(=O)CCCCC(=O)NCCCCCNC(=S)Nc1ccc(-c2c3ccc(=O)cc-3oc3cc(O)ccc23)c(C(=O)O)c1)OC(=O)CCCCCCCC=CCCCCCCCC (centres unmarked) [KODE-fluorescein (I)]
- Association with the membrane of red blood cells (red blood cells): readily associates
- Concentration of dispersion at which insertion is observed (red blood cells): greater than 0.1 mg/ml
- Period for which incorporation and distribution appears stable (red blood cells; cells stored in the dark): at least 40 days

— patent US10858384B2, “Synthetic molecule constructs” (KODE BIOTECH LIMITED, priority 2004, dated 2020)
